The record followed here is EP2567959B1, “6-(4-HYDROXY-PHENYL)-3-STYRYL-1H-PYRAZOLO[3,4-B]PYRIDINE-4-CARBOXYLIC ACID AMIDE DERIVATIVES AS KINASE INHIBITORS” (SANOFI, priority 2011, dated 2013).

One may read the inhibition as the drop in the measured response relative to a control, in per cent.

Each structure is given as a SMILES string.

The experiment deals with T1, human full-length recombinant PKC βII (Homo sapiens, UniProt P05771).
T1 construct: Active human full-length recombinant PKC βII; purchased Invitrogen GmbH, Darmstadt, Germany
T1 sequence (P05771 1-673 isoform P05771-2): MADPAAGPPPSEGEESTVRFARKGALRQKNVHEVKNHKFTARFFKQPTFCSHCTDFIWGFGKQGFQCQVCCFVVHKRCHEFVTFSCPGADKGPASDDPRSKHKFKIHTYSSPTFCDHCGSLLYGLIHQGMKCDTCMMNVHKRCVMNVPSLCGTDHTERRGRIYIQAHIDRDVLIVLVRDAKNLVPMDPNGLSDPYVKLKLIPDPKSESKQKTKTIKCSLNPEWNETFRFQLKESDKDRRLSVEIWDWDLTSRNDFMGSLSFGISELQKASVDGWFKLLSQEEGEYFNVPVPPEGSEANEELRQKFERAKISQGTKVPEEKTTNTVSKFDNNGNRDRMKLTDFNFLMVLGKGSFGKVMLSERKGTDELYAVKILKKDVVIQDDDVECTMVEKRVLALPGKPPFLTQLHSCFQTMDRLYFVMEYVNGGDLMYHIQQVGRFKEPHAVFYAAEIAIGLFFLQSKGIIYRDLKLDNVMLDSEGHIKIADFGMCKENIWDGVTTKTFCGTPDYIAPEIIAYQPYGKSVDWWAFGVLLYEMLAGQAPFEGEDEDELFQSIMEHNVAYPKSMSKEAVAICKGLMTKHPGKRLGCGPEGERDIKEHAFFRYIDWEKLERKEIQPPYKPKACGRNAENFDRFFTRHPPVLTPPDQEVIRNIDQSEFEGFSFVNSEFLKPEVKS
The experiment can be described thus: Determination of PKC βII inhibition (Caliper mobility-shift kinase assay, phosphorylation of fluorescein peptide substrate). In kind it is biochemical. The following applies: final compound concentration 1.14 µM (±0.15 µM); 60 min incubation at 32 °C. Here is the method:
Determination of PKC βII inhibition
PKC βII inhibition was determined according to the following protocol:
Active human full-length recombinant PKC βII and the peptide substrate, Fluorescein-RFARKGSLRQKNV, were purchased from Invitrogen GmbH, Darmstadt, Germany. Adenosine-5'-triphosphate (ATP), bovine serum albumine (BSA), dimethylsulphoxide (DMSO), 4-(2-hydroxyethyl)piperazine-1-ethanesulfonic acid (Hepes), Triton X-100, 1,2-Dioleoyl-sn-glycerol (DAG), L-α-Phosphatidyl-L-serine (PS), calcium chloride (CaCl2), and Pluronic F-68 were purchased from Sigma-Aldrich, Munich, Germany. Magnesium chloride, 1 M sodium hydroxide solution, 1M hydrochloric acid solution and EDTA were obtained from Merck Biosciences, Darmstadt, Germany.
Test compounds were diluted to three times the test concentration in buffer 1 (30 mM Hepes-NaOH, pH 7.4, 0.01 % Pluronic F-68 and 3 % (v/v) DMSO). The PKC βII enzyme was diluted to a concentration of 30 ng/ml in buffer 2 (30 mM Hepes-NaOH, pH 7.4, 15 mM MgCl2,150 µM CaCl2, 150 µg/ml PS, 60 µg/ml DAG, and 0.045 % (w/v) Triton X-100). The peptide substrate and ATP were diluted to concentrations of 3 µM and 120 µM, respectively, in buffer 2. Two µl of the compound solution were mixed with 2 µl of the diluted enzyme in a 384-well small volume microtiter plate (Greiner, Bio-One, Frickenhausen, Germany), and the kinase reaction was initiated by addition of 2 µl of the solution containing peptide substrate and ATP. After 60 min incubation at 32 °C, the reaction was stopped by addition of 20 µl of a solution containing 130 mM Hepes-NaOH, pH 7.4, 0.0195 % (v/v) Brij-35, 6.5 mM EDTA, 0.13 % chip coating reagent 3 (Caliper Lifescience Inc, Hopkinton, MA) and 6.5 % (v/v) DMSO. Phosphorylation of the substrate peptide was then detected on a Caliper 3000 instrument essentially as described by Pommereau et al (J. Biomol. Screening 2004, 9(5), 409-416). Separation conditions were as follows: Pressure -0.8 psi, upstream voltage - 3000 V, downstream voltage -800 V. Positive controls (buffer 1 instead of compound) and negative controls (buffer 1 instead of compound and buffer 2 instead of kinase solution) were run in parallel on each plate. Fractional turnover (R) was determined as the height of the peak of the phosphorylated peptide product divided by the sum of the unphosphorylated substrate and phosphorylated product peak heights. Percent-inhibition values for the test compounds were determined using the formula % Inhibition = 100*(1-(Rcompound-Rnegative control)/(Rpositive control-Rnegative control). [formula]
In the following table % inhibition values observed with example compounds at a final concentration of 1.14 µM (±0.15 µM) are listed: […]
Regarding `N#Cc1cccc(/C=C/c2n[nH]c3nc(-c4ccc(O)cc4)cc(C(=O)N4CCNCC4)c23)c1` [Example 25, 3-{(E)-2-[6-(4-Hydroxy-phenyl)-4-(piperazine-1-carbonyl)-1H-pyrazolo[3,4-b]pyridin-3-yl]-vinyl}-benzonitrile], the inhibition at 1.14 µM amounted to 99%.
As for `O=C(c1cc(-c2ccc(O)cc2)nc2[nH]nc(/C=C/c3cccc(N4CCCCC4)c3)c12)N1CCNCC1` [Example 26, {6-(4-Hydroxy-phenyl)-3-[(E)-2-(3-piperidin-1-yl-phenyl)-vinyl]-1H-pyrazolo[3,4-b]pyridin-4-yl}-piperazin-1-yl-methanone], the inhibition at 1.14 µM came out at 96%.
For `O=C(c1cc(-c2ccc(O)cc2)nc2[nH]nc(/C=C/c3cccc(N4CCOCC4)c3)c12)N1CCNCC1` [Example 27, {6-(4-Hydroxy-phenyl)-3-[(E)-2-(3-morpholin-4-yl-phenyl)-vinyl]-1H-pyrazolo[3,4-b]pyridin-4-yl}-piperazin-1-yl-methanone], the inhibition at 1.14 µM worked out at 98%.
In the case of `O=C(c1cc(-c2ccc(O)cc2)nc2[nH]nc(/C=C/c3cccc(N4CCCC4)c3)c12)N1CCNCC1` [Example 28, {6-(4-Hydroxy-phenyl)-3-[(E)-2-(3-pyrrolidin-1-yl-phenyl)-vinyl]-1H-pyrazolo[3,4-b]pyridin-4-yl}-piperazin-1-yl-methanone], the inhibition at 1.14 µM was determined as 94%.
Turning to `Cc1cc(/C=C/c2n[nH]c3nc(-c4ccc(O)cc4)cc(C(=O)N4CCNCC4)c23)ccc1C#N` [Example 29, 4-{(E)-2-[6-(4-Hydroxy-phenyl)-4-(piperazine-1-carbonyl)-1H-pyrazolo[3,4-b]pyridin-3-yl]-vinyl}-2-methyl-benzonitrile], the inhibition at 1.14 µM was found to be 96%.
In the case of `O=C(c1cc(-c2ccc(O)cc2)nc2[nH]nc(/C=C/c3cc(Cl)cc(N4CCCCC4)c3)c12)N1CCNCC1` [Example 30, [3-[(E)-2-(3-Chloro-5-pipe-ridin-1-yl-phe-nyl)-vinyl]-6-(4-hydroxy-phenyl)-1H-pyrazolo[3,4-b]pyridin-4-yl]-piperazin-1-yl-methanone], the inhibition at 1.14 µM stood at 90%.
As for `CN(C)C(=O)c1cccc(/C=C/c2n[nH]c3nc(-c4ccc(O)cc4)cc(C(=O)N4CCNCC4)c23)c1` [Example 31, 3-{(E)-2-[6-(4-Hydroxy-phenyl)-4-(piperazine-1-carbonyl)-1H-py-razolo[3,4-b]py-ridin-3-yl]-vinyl}-N,N-dimethyl-benzamide], the inhibition at 1.14 µM was 99%.
The result for `CN1Cc2cc(/C=C/c3n[nH]c4nc(-c5ccc(O)cc5)cc(C(=O)N5CCNCC5)c34)ccc2C1=O` [Example 32, 5-{(E)-2-[6-(4-Hydroxy-phenyl)-4-(piperazine-1-carbonyl)-1H-py-razolo[3,4-b]pyri-din-3-yl]-vinyl}-2-methyl-2,3-di-hydro-isoindol-1-one] reads 99%; that for `O=C(c1cc(-c2ccc(O)cc2)nc2[nH]nc(/C=C/c3cccc4c3NCC4)c12)N1CCNCC1` [Example 33, [3-[(E)-2-(2,3-Dihydro-1H-indol-7-yl)-vinyl]-6-(4-hydroxyphenyl)-1H-pyrazolo[3,4-b]-pyridin-4-yl]-piperazin-1-yl-methanone], 99%; that for `CN(C)C(=O)c1cccc(/C=C/c2n[nH]c3nc(-c4ccc(O)cc4)cc(C(=O)N4CCNCC4(C)C)c23)c1` [Example 34, 3-{(E)-2-[4-(2,2-Dimethyl-piperazine-1-carbonyl)-6-(4-hydroxy-phenyl)-1H-pyrazolo[3,4-b]pyridin-3-yl]-vinyl}-N,N-dimethyl-benzamide], 98%.
As for `CN1Cc2ccc(/C=C/c3n[nH]c4nc(-c5ccc(O)cc5)cc(C(=O)N5CCNCC5)c34)cc2C1=O` [Example 35, 6-{(E)-2-[6-(4-Hydroxy-phenyl)-4-(piperazine-1-carbonyl)-1H-pyrazolo[3,4-b]pyridin-3-yl]-vinyl}-2-methyl-2,3-dihydro-isoindol-1-one], the inhibition at 1.14 µM stood at 98%.
For `O=C(c1cc(-c2ccc(O)cc2)nc2[nH]nc(CCC3CCCCC3)c12)N1CCNCC1` [Example 36, [3-(2-cyclohexyl-ethyl)-6-(4-hydroxy-phenyl)-1H-pyrazolo[3,4-b]pyridin-4-yl]-piperazin-1-yl-methanone], the inhibition at 1.14 µM stood at 81%.
In the case of `O=C(c1cc(-c2ccc(O)cc2)nc2[nH]nc(/C=C/c3ccc(F)cc3)c12)N1CCNCC1` [Example 37, [3-[(E)-2-(4-Fluoro-phenyl)-vinyl]-6-(4-hydroxy-phenyl)-1H-pyrazolo[3,4-b]pyridin-4-yl]-piperazin-1-yl-methanone], the inhibition at 1.14 µM came out at 97%.
Then `Cc1cccc(/C=C/c2n[nH]c3nc(-c4ccc(O)cc4)cc(C(=O)N4CCNCC4)c23)c1` [Example 38, [6-(4-Hydroxy-phenyl)-3-((E)-2-m-tolyl-vinyl)-1H-pyrazolo[3,4-b]pyridin-4-yl]-piperazin-1-yl-methanone], with 98%; and `O=C(c1cc(-c2ccc(O)cc2)nc2[nH]nc(/C=C/c3ccc(Cl)cc3Cl)c12)N1CCNCC1` [Example 39, [3-[(E)-2-(2,4-Dichloro-phenyl)-vinyl]-6-(4-hydroxy-phenyl)-1H-pyrazolo[3,4-b]pyridin-4-yl]-piperazin-1-yl-methanone], with 39%.
The result for `Cc1cc(C)cc(/C=C/c2n[nH]c3nc(-c4ccc(O)cc4)cc(C(=O)N4CCNCC4)c23)c1` [Example 40, [3-[(E)-2-(3,5-Dimethylphenyl)-vinyl]-6-(4-hydroxy-phenyl)-1H-pyrazolo[3,4-b]pyridin-4-yl]-piperazin-1-yl-methanone] reads 99%.
Consider `O=C(c1cc(-c2ccc(O)cc2)nc2[nH]nc(/C=C/c3ccc(OC(F)F)cc3)c12)N1CCNCC1` [Example 41, [3-[(E)-2-(4-Difluoromethoxy-phenyl)-vinyl]-6-(4-hydroxy-phenyl)-1H-pyrazolo[3,4-b]pyridin-4-yl]-piperazin-1-yl-methanone], for which the inhibition at 1.14 µM is 97%.
For the molecule `O=C(c1cc(-c2ccc(O)cc2)nc2[nH]nc(/C=C/c3ccc(C(F)(F)F)cc3)c12)N1CCNCC1` [Example 42, {6-(4-Hydroxy-phenyl)-3-[(E)-2-(4-trifluoromethylphenyl)-vinyl]-1 H-pyrazolo[3,4-b]pyridin-4-yl}-piperazin-1-yl-methanone], the inhibition at 1.14 µM turned out to be 66%.
Consider `COc1ccc(/C=C/c2n[nH]c3nc(-c4ccc(O)cc4)cc(C(=O)N4CCNCC4)c23)c(OC)c1` [Example 43, [3-[(E)-2-(2,4-Dimethoxyphenyl)-vinyl]-6-(4-hydroxy-phenyl)-1H-pyrazolo[3,4-b]pyridin-4-yl]-piperazin-1-yl-methanone], for which the inhibition at 1.14 µM was determined as 87%.
`O=C(c1cc(-c2ccc(O)cc2)nc2[nH]nc(/C=C/c3ccc(Oc4ccccc4)cc3)c12)N1CCNCC1` [Example 44, {6-(4-hydroxy-phenyl)-3-[(E)-2-(4-phenoxy-phenyl)-vinyl]-1H-pyrazolo[3,4-b]pyridin-4-yl}-piperazin-1-yl-methanone]: the inhibition at 1.14 µM stood at 97%.
In the case of `O=C(c1cc(-c2ccc(O)cc2)nc2[nH]nc(/C=C/c3ccc(Cl)c(Cl)c3)c12)N1CCNCC1` [Example 45, [3-[(E)-2-(3,4-Dichloro-phenyl)-vinyl]-6-(4-hydroxy-phenyl)-1H-pyrazolo[3,4-b]pyridin-4-yl]-piperazin-1-yl-methanone], the inhibition at 1.14 µM was found to be 61%.
As for `O=C(c1cc(-c2ccc(O)cc2)nc2[nH]nc(/C=C/c3cccc(C(F)(F)F)c3)c12)N1CCNCC1` [Example 46, {6-(4-Hydroxy-phenyl)-3-[(E)-2-(3-trifluoromethylphenyl)-vinyl]-1 H-pyrazolo[3,4-b]pyridin-4-yl}-piperazin-1-yl-methanone], the inhibition at 1.14 µM amounted to 97%.
On to `Cc1cc(/C=C/c2n[nH]c3nc(-c4ccc(O)cc4)cc(C(=O)N4CCNCC4)c23)ccc1O` [Example 47, [3-[(E)-2-(4-Hydroxy-3-methyl-phenyl)-vinyl]-6-(4-hydroxy-phenyl)-1H-pyrazolo[3,4-b]pyridin-4-yl]-piperazin-1-yl-methanone], for which the inhibition at 1.14 µM amounted to 98%.
Take `O=C(c1cc(-c2ccc(O)cc2)nc2[nH]nc(/C=C/c3cccc(Cl)c3)c12)N1CCNCC1` [Example 48, [3-[(E)-2-(3-Chloro-phenyl)-vinyl]-6-(4-hydroxy-phenyl)-1H-pyrazolo[3,4-b]pyridin-4-yl]-piperazin-1-yl-methanone]: the inhibition at 1.14 µM was 97%.
